Assay results reported in PubChem BioAssay (NCI).
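In this assay, cells in 96-well plates receive the compound at five concentrations for 48 hours. Endpoints are linearly interpolated between the surrounding concentrations. The concentration for full growth arrest is given as TGI.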

Columns and labels:
Assay in all cases: NCI-60 cell line screen, 48 h
[1] = system: NCI-H23 lung
[2] = system: SF-539 CNS
[3] = system: SR leukemia
[4] = system: SNB-75 CNS
[5] = system: MDA-N
[6] = system: RPMI-8226 leukemia
[7] = system: MDA-MB-435
[8] = system: DU-145 prostate
[9] = system: UACC-62 melanoma
[10] = system: ACHN renal
[11] = system: NCI/ADR-RES ovarian
[12] = system: OVCAR-3 ovarian
[13] = system: HS 578T breast
[14] = system: OVCAR-5 ovarian
[15] = system: MOLT-4 leukemia
[16] = system: SW-620 colon
[17] = system: OVCAR-8 ovarian
[18] = system: UO-31 renal
[19] = system: CCRF-CEM leukemia
[20] = system: SF-268 CNS
[21] = system: HT29 colon
[22] = system: KM12 colon
[23] = system: HOP-62 NSCLC
[24] = system: HL-60(TB) leukemia
[25] = system: NCI-H460 lung
[26] = system: IGROV1 ovarian
[27] = system: A498 renal
[28] = system: NCI-H226 lung
[29] = system: SNB-19 CNS
[30] = system: MCF7 breast
[31] = system: MDA-MB-231 breast
[32] = system: SK-MEL-28 melanoma
[33] = system: 786-0 renal
[34] = system: UACC-257 melanoma
[35] = system: SK-MEL-2 melanoma
[36] = system: TK-10 renal
[37] = system: SF-295 CNS
[38] = system: SK-MEL-5 melanoma
[39] = system: A549 NSCLC
[40] = system: K-562 leukemia
[41] = system: HOP-92 NSCLC
[42] = system: HCT-116 colon
[43] = system: EKVX NSCLC
[44] = system: M14 melanoma
[45] = system: T-47D breast
[46] = system: U251 CNS
[47] = system: CAKI-1 renal
[48] = system: HCT-15 colon
[49] = system: RXF 393 renal
[50] = system: COLO 205 colon
[51] = system: BT-549 breast
[52] = system: PC-3 prostate
[53] = system: SN12C renal
[54] = system: LOX IMVI melanoma
[55] = system: NCI-H522 lung
[56] = system: OVCAR-4 ovarian
[57] = system: MALME-3M melanoma
[58] = system: SK-OV-3 ovarian
[59] = system: HCC-2998 colon

SMILES: CCCCCCCCCCCC[C@@H](O)[C@H]1CC[C@H]([C@H]2CC[C@H]([C@H](O)CC[C@H](O)CCCCCCCC3=C[C@H](C)OC3=O)O2)O1
- TGI [1]: 2.31 µM
- TGI [2]: 3.12 µM
- TGI [3]: > 10 µM
- TGI [4]: 3.77 µM
- TGI [5]: 4.49 µM
- TGI [6]: 9.49 µM
- TGI [7]: 4.05 µM
- TGI [8]: > 10 µM
- TGI [9]: 2.58 µM
- TGI [10]: 2.45 µM
- TGI [11]: 3.8 µM
- TGI [12]: 2.95 µM
- TGI [13]: 5.48 µM
- TGI [14]: 3.25 µM
- TGI [15]: > 10 µM
- TGI [16]: 5.82 µM
- TGI [17]: 4 µM
- TGI [18]: 2.16 µM
- TGI [19]: 4.74 µM
- TGI [20]: 3.32 µM
- TGI [21]: 3.25 µM
- TGI [22]: 2.9 µM
- TGI [23]: 2.96 µM
- TGI [24]: 4.17 µM
- TGI [25]: 2.82 µM
- TGI [26]: 3.2 µM
- TGI [27]: 4.94 µM
- TGI [28]: 3.48 µM
- TGI [29]: 2.62 µM
- TGI [30]: 2.72 µM
- TGI [31]: 6.36 µM
- TGI [32]: 3.6 µM
- TGI [33]: 5.66 µM
- TGI [34]: 2.35 µM
- TGI [35]: 2.93 µM
- TGI [36]: 2.65 µM
- TGI [37]: 3.01 µM
- TGI [38]: 4.48 µM
- TGI [39]: 4.42 µM
- TGI [40]: > 10 µM
- TGI [41]: 4.23 µM
- TGI [42]: 4.42 µM
- TGI [43]: 2.82 µM
- TGI [44]: 3.11 µM
- TGI [45]: > 10 µM
- TGI [46]: 5.32 µM
- TGI [47]: 6.81 µM
- TGI [48]: 4.33 µM
- TGI [49]: 5.9 µM
- TGI [50]: 3.94 µM
- TGI [51]: 1.02 µM
- TGI [52]: 2.9 µM
- TGI [53]: 8.13 µM
- TGI [54]: 2.76 µM

SMILES: C[N+](C)(CCNc1ccc(NCC[N+](C)(C)Cc2ccc([N+](=O)[O-])cc2)c2c1C(=O)c1ccccc1C2=O)Cc1ccc([N+](=O)[O-])cc1
- TGI [1]: > 100 µM
- TGI [2]: > 100 µM
- TGI [3]: > 100 µM
- TGI [4]: > 100 µM
- TGI [55]: > 100 µM
- TGI [5]: > 100 µM
- TGI [7]: > 100 µM
- TGI [8]: > 100 µM
- TGI [9]: > 100 µM
- TGI [56]: > 100 µM
- TGI [10]: > 100 µM
- TGI [11]: > 100 µM
- TGI [12]: > 100 µM
- TGI [13]: > 100 µM
- TGI [57]: > 100 µM
- TGI [14]: > 100 µM
- TGI [15]: > 100 µM
- TGI [16]: > 100 µM
- TGI [17]: > 100 µM
- TGI [18]: > 100 µM
- TGI [19]: > 100 µM
- TGI [20]: > 100 µM
- TGI [21]: > 100 µM
- TGI [22]: > 100 µM
- TGI [23]: > 100 µM
- TGI [24]: > 100 µM
- TGI [58]: > 100 µM
- TGI [25]: > 100 µM
- TGI [26]: > 100 µM
- TGI [27]: > 100 µM
- TGI [28]: > 100 µM
- TGI [29]: > 100 µM
- TGI [30]: > 100 µM
- TGI [31]: > 100 µM
- TGI [33]: > 100 µM
- TGI [34]: > 100 µM
- TGI [35]: > 100 µM
- TGI [36]: > 100 µM
- TGI [37]: > 100 µM
- TGI [38]: > 100 µM
- TGI [39]: > 100 µM
- TGI [40]: > 100 µM
- TGI [41]: > 100 µM
- TGI [42]: > 100 µM
- TGI [43]: > 100 µM
- TGI [44]: > 100 µM
- TGI [45]: > 100 µM
- TGI [46]: > 100 µM
- TGI [47]: > 100 µM
- TGI [48]: > 100 µM
- TGI [50]: > 100 µM
- TGI [51]: > 100 µM
- TGI [59]: > 100 µM
- TGI [52]: > 100 µM
- TGI [53]: > 100 µM
- TGI [54]: > 100 µM

SMILES: COc1ccc(C(=O)/C=C/c2ccc(Oc3cc(C(=O)/C=C/c4ccc(O)cc4)c(O)cc3OC)cc2)c(O)c1
- TGI [1]: 18.1 µM
- TGI [2]: 5.26 µM
- TGI [3]: 5.73 µM
- TGI [4]: 18.2 µM
- TGI [55]: 10.5 µM
- TGI [5]: > 100 µM
- TGI [6]: 4.7 µM
- TGI [7]: > 100 µM
- TGI [8]: > 100 µM
- TGI [9]: 11.2 µM
- TGI [56]: 18 µM
- TGI [10]: 6.85 µM
- TGI [11]: 11 µM
- TGI [12]: 32.2 µM
- TGI [13]: > 100 µM
- TGI [57]: 59.8 µM
- TGI [14]: 26 µM
- TGI [16]: > 100 µM
- TGI [17]: 9.83 µM
- TGI [18]: 11.3 µM
- TGI [19]: > 100 µM
- TGI [20]: > 100 µM
- TGI [21]: 5.13 µM
- TGI [22]: 7.83 µM
- TGI [23]: 49.2 µM
- TGI [24]: > 100 µM
- TGI [58]: 96.4 µM
- TGI [25]: > 100 µM
- TGI [26]: 6.13 µM
- TGI [27]: 6.26 µM
- TGI [29]: > 100 µM
- TGI [30]: > 100 µM
- TGI [31]: 9.8 µM
- TGI [32]: 8.15 µM
- TGI [33]: 7.9 µM
- TGI [34]: > 100 µM
- TGI [35]: 46 µM
- TGI [36]: 58 µM
- TGI [37]: 40.2 µM
- TGI [38]: 18.7 µM
- TGI [39]: > 100 µM
- TGI [40]: > 100 µM
- TGI [41]: 38.4 µM
- TGI [42]: 3.96 µM
- TGI [43]: 23.5 µM
- TGI [44]: 61.2 µM
- TGI [45]: 66.9 µM
- TGI [46]: > 100 µM
- TGI [47]: 68.4 µM
- TGI [48]: 6.62 µM
- TGI [49]: 6.96 µM
- TGI [50]: 15.4 µM
- TGI [51]: > 100 µM
- TGI [52]: > 100 µM
- TGI [53]: > 100 µM
- TGI [54]: 5.05 µM
